What was measured:
[1] = Toxicity based on animal body weights in tumor-bearing mice; assay type: in vivo; settings: Balb/c mice, s.c. M109 tumors, i.v. twice a week for 4 weeks, 2-10 μmol/kg
Procedure: The anti-tumor activity of the compounds of Examples 9b (EC111) and 9c (EC112), where the drug is daunorubicin, when administered intravenously (i.v.) to tumor-bearing animals, was evaluated in Balb/c mice bearing subcutaneous M109 tumors. Four days post tumor inoculation in the subcutis of the right axilla with 1×10^6 M109 cells, mice (5/group) were injected i.v. twice a week for 4 weeks with 2-10 μmol/kg of the compound of either Example 9b or Example 9c or with unconjugated daunorubicin or PBS. Tumor growth was measured using calipers at 3-day or 4-day intervals in each treatment group. Tumor volumes were calculated using the equation V=a×b^2/2, where “a” is the length of the tumor and “b” is the width expressed in millimeters. Animal body weight was also determined at 3-day or 4-day intervals.
The protocol was as described in Example 42 except that the compound of Example 10a (EC105) was used, where the drug is bis-indolyl-seco-CBI. The compound of Example 10a was injected at a dose of 0.3 μmol/kg. Also, two subcutaneous tumor models were tested including the M109 model (folate receptor-positive) and the 4T1 model (folate receptor-negative), and in some animals a 67-fold excess of free folate (20 μmol/kg; FA) was coinjected with the conjugate (i.e., the compound of Example 10a).

[2] = tested on: M109 tumors (folate receptor-positive); test: Inhibition of subcutaneous M109 tumor growth in mice; assay type: in vivo; settings: Balb/c mice, s.c. M109 tumors, i.v. twice a week for 4 weeks, 2-10 μmol/kg
Procedure: The anti-tumor activity of the compounds of Examples 9b (EC111) and 9c (EC112), where the drug is daunorubicin, when administered intravenously (i.v.) to tumor-bearing animals, was evaluated in Balb/c mice bearing subcutaneous M109 tumors. Four days post tumor inoculation in the subcutis of the right axilla with 1×10^6 M109 cells, mice (5/group) were injected i.v. twice a week for 4 weeks with 2-10 μmol/kg of the compound of either Example 9b or Example 9c or with unconjugated daunorubicin or PBS. Tumor growth was measured using calipers at 3-day or 4-day intervals in each treatment group. Tumor volumes were calculated using the equation V=a×b^2/2, where “a” is the length of the tumor and “b” is the width expressed in millimeters. Animal body weight was also determined at 3-day or 4-day intervals. […]
The anti-tumor activity of the compound of Example 16b (EC145), where the drug is deacetylvinblastine monohydrazide, when administered intravenously (i.v.) to tumor-bearing animals, was evaluated in Balb/c mice bearing subcutaneous M109 tumors. […] Tumor growth was measured using calipers at 2-day or 3-day intervals in each treatment group. Tumor volumes were calculated using the equation V=a×b^2/2, where “a” is the length of the tumor and “b” is the width expressed in millimeters. […]

COc1cccc2c1C(=O)c1c(O)c3c(c(O)c1C2=O)C[C@@](O)(/C(CO)=N\NC(=O)CCN1C(=O)CC(SC[C@H](NC(=O)CC[C@H](NC(=O)c2ccc(NCc4cnc5nc(N)[nH]c(=O)c5n4)cc2)C(=O)O)C(=O)O)C1=O)C[C@@H]3O[C@H]1CC(N)[C@H](O)C(C)O1 (stereo partly shown) [Example 9c]
toxicity based on animal body weights [1]: no apparent toxicity
anti-tumor activity (growth of M109 tumors) [2]: effective in delaying the growth of M109 tumors

COc1cccc2c1C(=O)c1c(O)c3c(c(O)c1C2=O)C[C@@](O)(C(=O)CO)C[C@@H]3O[C@H]1C[C@H](N)[C@H](O)[C@H](C)O1 [doxorubicin]
toxicity based on animal body weights [1]: concomitant toxicity
anti-tumor activity (growth of M109 tumors) [2]: provided an anti-tumor response

From patent publication US7601332B2, “Vitamin receptor binding drug delivery conjugates” (priority 2003, dated 2009)
